Reference: PMC9848300, “Discovery of novel enasidenib analogues targeting inhibition of mutant isocitrate dehydrogenase 2 as antileukaemic agents” (Journal of Enzyme Inhibition and Medicinal Chemistry, 2023)
Positions count from the first letter of the chain named.

Tests used:
IDH2 R140Q = settings: Figure 2; cited from earlier work
MDA-MB-468 = test: NCI 60 antitumor screening (single dose / five doses); format: cell-based; settings: Homo sapiens, MDA-MB-468
RPMI-8226 = test: as above; format: cell-based; settings: Homo sapiens, RPMI-8226
HOP-92 = test: as above; format: cell-based; settings: Homo sapiens, HOP-92
CCRF-CEM = test: as above; format: cell-based; settings: Homo sapiens, CCRF-CEM
DU-145 = test: as above; format: cell-based; settings: Homo sapiens, DU-145
UO-31 = test: as above; format: cell-based; settings: Homo sapiens, UO-31
786-0 = test: as above; format: cell-based; settings: Homo sapiens, 786-0
ACHN = test: as above; format: cell-based; settings: Homo sapiens, ACHN
MALME-3M = test: as above; format: cell-based; settings: Homo sapiens, Malme-3M
UACC-62 = test: as above; format: cell-based; settings: Homo sapiens, UACC-62
HT29 = test: as above; format: cell-based, human; settings: Homo sapiens, HT-29
UACC-257 = test: as above; format: cell-based; settings: Homo sapiens, UACC-257
A498 = test: as above; format: cell-based; settings: Homo sapiens, A498
SN 12C = test: as above; format: cell-based; settings: Homo sapiens, SN12C
SW-620 = test: as above; format: cell-based, human; settings: Homo sapiens, SW-620
SNB-75 = test: as above; format: cell-based; settings: Homo sapiens, SNB-75
MDA-MB-231/ATCC = test: as above; format: cell-based; settings: Homo sapiens, MDA-MB-231
SF-539 = test: as above; format: cell-based; settings: Homo sapiens, SF-539
MDA-MB-435 = test: as above; format: cell-based; settings: Homo sapiens, MDA-MB-435
SR = test: as above; format: cell-based; settings: Homo sapiens, SR
COLO 205 = test: as above; format: cell-based; settings: Homo sapiens, COLO 205
NCI/ADR-RES = test: as above; format: cell-based; settings: Homo sapiens, NCI/ADR-RES
LOX IMVI = test: as above; format: cell-based; settings: Homo sapiens, LOX IMVI
IGROV1 = test: as above; format: cell-based; settings: Homo sapiens, IGROV-1
SK-MEL-28 = test: as above; format: cell-based; settings: Homo sapiens, SK-MEL-28
HL-60(TB) = test: as above; format: cell-based; settings: Homo sapiens, HL-60
HCT-15 = test: as above; format: cell-based; settings: Homo sapiens, HCT-15
SK-MEL-5 = test: as above; format: cell-based; settings: Homo sapiens, SK-MEL-5
K-562 = test: as above; format: cell-based; settings: Homo sapiens, K562
EKVX = test: as above; format: cell-based; settings: Homo sapiens, EKVX
RXF 393 = test: as above; format: cell-based; settings: Homo sapiens, RXF 393
BT-549 = test: as above; format: cell-based; settings: Homo sapiens, BT-549
T-47D = test: as above; format: cell-based; settings: Homo sapiens, T47D
IDH2^R140Q = target: T1, IDH2^R140Q (Homo sapiens, UniProt P48735, R140Q); test: biochemical
T1 sequence (P48735 40-452 R140Q): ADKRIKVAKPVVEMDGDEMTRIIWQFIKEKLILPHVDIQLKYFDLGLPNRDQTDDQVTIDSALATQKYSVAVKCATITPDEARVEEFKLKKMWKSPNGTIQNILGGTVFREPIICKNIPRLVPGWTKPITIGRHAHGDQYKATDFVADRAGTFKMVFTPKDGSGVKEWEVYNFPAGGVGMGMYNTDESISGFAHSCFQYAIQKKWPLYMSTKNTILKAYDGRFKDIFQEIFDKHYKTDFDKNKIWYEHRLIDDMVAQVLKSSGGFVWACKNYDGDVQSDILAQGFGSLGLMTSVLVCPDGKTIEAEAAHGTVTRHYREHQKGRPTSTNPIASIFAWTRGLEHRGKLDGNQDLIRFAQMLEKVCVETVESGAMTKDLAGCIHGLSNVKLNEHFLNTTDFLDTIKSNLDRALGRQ

SF-295 = test: NCI 60 antitumor screening (single dose / five doses); format: cell-based; settings: Homo sapiens, SF-295
HCT-116 = test: as above; format: cell-based; settings: Homo sapiens, HCT-116
MOLT-4 = test: as above; format: cell-based; settings: Homo sapiens, MOLT-4
wild type IDH2 = target: T2, wild type IDH2 (Homo sapiens, UniProt P48735); test: IDH2 enzyme inhibition assay (wild type IDH Assay Kit)
T2 sequence (P48735 40-452): T1 sequence (P48735 40-452 R140Q) with Q101R

IDH1 R132H = settings: Figure 2; cited from earlier work

## O=C(Nc1cccc(C(F)(F)F)c1)Nc1cc(S(=O)(=O)NC2CC2)ccc1-c1ccsc1 [AGI-6780]
IDH2 R140Q
  IC50: 0.023 µM

## Cc1ccc(Cl)cc1NC(=O)Nc1cc(NC(=O)c2ccccc2)ccc1N1CCCC1 [CP-17]
IDH2 R140Q
  IC50: 0.041 µM

## CC(C)(O)CNc1nc(Nc2ccnc(C(F)(F)F)c2)nc(-c2cccc(C(F)(F)F)n2)n1 [Enasidenib]
MDA-MB-468
  GI50: 19.9 µM
RPMI-8226
  GI50: 19.9 µM
HOP-92
  GI50: 25.1 µM
CCRF-CEM
  GI50: 19.9 µM
DU-145
  GI50: 19.9 µM
UO-31
  GI50: 19.9 µM
786-0
  GI50: 19.9 µM
ACHN
  GI50: 25.1 µM
MALME-3M
  GI50: 19.9 µM
UACC-62
  GI50: 15.8 µM
HT29
  GI50: 15.8 µM
UACC-257
  GI50: 19.9 µM
A498
  GI50: 15.8 µM
SN 12C
  GI50: 19.9 µM
SW-620
  GI50: 25.1 µM
SNB-75
  GI50: 15.8 µM
MDA-MB-231/ATCC
  GI50: 19.9 µM
SF-539
  GI50: 15.8 µM
MDA-MB-435
  GI50: 15.8 µM
SR
  GI50: 19.9 µM
COLO 205
  GI50: 19.9 µM
NCI/ADR-RES
  GI50: 15.8 µM
LOX IMVI
  GI50: 15.8 µM
IGROV1
  GI50: 31.6 µM
SK-MEL-28
  GI50: 15.8 µM
HL-60(TB)
  GI50: 19.9 µM
HCT-15
  GI50: 19.9 µM
IDH2 R140Q
  IC50: 0.1 µM
SK-MEL-5
  GI50: 12.6 µM
K-562
  GI50: 31.6 µM
EKVX
  GI50: 19.9 µM
RXF 393
  GI50: 19.9 µM
BT-549
  GI50: 15.8 µM
T-47D
  GI50: 15.8 µM
IDH2^R140Q
  IC50: 0.0755 ± 0.00369 µM
SF-295
  GI50: 15.8 µM
HCT-116
  GI50: 15.8 µM
MOLT-4
  GI50: 12.6 µM
Wild type IDH2
  IC50: 2.33 ± 0.09 µM

## CC(C)Nc1cc(Nc2cccc(C(F)(F)F)n2)nc(-c2cccc(C(F)(F)F)c2)c1 [III]
IDH2 R140Q
  IC50: 0.074 µM

## CC(C)Nc1cc(Nc2cccc(C(F)(F)F)n2)nc(-c2cccc(Cl)c2)c1 [II]
IDH2 R140Q
  IC50: 0.06 µM

## CC(C)Nc1cc(Nc2cc(C(F)(F)F)ccn2)nc(-c2ccccc2)c1 [I]
IDH2 R140Q
  IC50: 0.055 µM

## CC(C)(C)ONc1nc(Nc2ccnc(C(F)(F)F)c2)nc(-c2cccc(C(F)(F)F)n2)n1 [TQ05310]
IDH2 R140Q
  IC50: 0.137 µM

## C[C@@H](Nc1nc(N[C@H](C)C(F)(F)F)nc(-c2cccc(Cl)n2)n1)C(F)(F)F [Vorasidenib]
IDH1 R132H
  IC50: 0.006 µM
